We go through one compound from US8841413B2, “Antidiabetic compounds” (Cadila Healthcare Limited, priority 2006, dated 2014).

For one test, the system named is db/db mice. The experiment in a line: In vivo glucose reduction in db/db mice. To be noted: oral (p.o) administration, FIG. 10. How it is done:
Acute single dose 120-min time-course experiments were carried out in male C57BL/6J or db/db mice, age 8-12 weeks, bred in-house. Animals were housed in groups of 6 animals per cage, for a week, in order to habituate them to vivarium conditions (25±4° C., 60-65% relative humidity, 12:12 h light:dark cycle, with lights on at 7.30 am). All the animal experiments were carried out according to the internationally valid guidelines following approval by the ‘Zydus Research Center animal ethical committee’. […] Two days prior to the study, the animals were randomised and divided into 5 groups (n=6), based upon their fed glucose levels. On the day of experiment, food was withdrawn from all the cages, water was given ad-libitum and were kept for overnight fasting. Vehicle (normal saline)/test/standard compounds were administered intraperitoneally (i.p.) or orally, on a body weight basis. […] The glucose estimation was carried out with DPEC-GOD/POD method (Ranbaxy Fine Chemicals Limited, Diagnostic division, India), using Spectramax-190, in 96-microwell plate reader (Molecular devices Corporation, Sunnyvale, Calif.). […] The AUC and BCAUC obtained from graphs were analyzed for one way ANOVA, followed by Dunnett's post test, using Graph Pad prism software. […]

The subject of another test is C57BL/6J mice. The test is described as follows: Acute single dose 120-min time-course experiment, in vivo glucose reduction in C57BL/6J mice. Also noted: unit not given here. To be noted: male C57BL/6J mice, Mean ± SEM. How it is done:
All the animal experiments were carried out according to the internationally valid guidelines following approval by the ‘Zydus Research Center animal ethical committee’. […] Two days prior to the study, the animals were randomised and divided into 5 groups (n=6), based upon their fed glucose levels. On the day of experiment, food was withdrawn from all the cages, water was given ad-libitum and were kept for overnight fasting. Vehicle (normal saline)/test/standard compounds were administered intraperitoneally (i.p.) or orally, on a body weight basis. […] Blood samples were centrifuged and the separated serum was immediately subjected for the glucose estimation. Serum for insulin estimation was stored at −70° C. until used for the insulin estimation. The glucose estimation was carried out with DPEC-GOD/POD method (Ranbaxy Fine Chemicals Limited, Diagnostic division, India), using Spectramax-190, in 96-microwell plate reader (Molecular devices Corporation, Sunnyvale, Calif.). […] The AUC and BCAUC obtained from graphs were analyzed for one way ANOVA, followed by Dunnett's post test, using Graph Pad prism software. Furthermore, the insulin estimation was carried out using rat/mouse insulin ELISA kit (Linco research, Mo. USA).

For the compound `CCc1cc(OC)ccc1-c1ccc(CC(NC(=O)[C@H](CC(=O)O)NC(=O)[C@H](CO)NC(=O)[C@@H](NC(=O)C(C)(Cc2ccccc2F)NC(=O)[C@@H](NC(=O)CNC(=O)[C@H](CCC(N)=O)NC(=O)C(C)(C)NC(=O)[C@@H](N)Cc2c[nH]cn2)[C@@H](C)O)[C@@H](C)O)C(=O)NC(Cc2ccc(-c3ccccc3C(F)(F)F)cc2)C(N)=O)cc1` (single isomer, unassigned) [Seq. ID. No. 32, H-Aib-QGT-(α-Me-2F-Phe)-TSD-Bip(OMe)-Bip(2CF3)], the “in vivo glucose reduction (in words)” value in the test with db/db mice is reported as “glucose reduction”. Besides, the blood glucose level with C57BL/6J mice (10 nM/kg, i.p, 0 min) is reported as 182 ± 2.3; in the test on C57BL/6J mice (10 nM/kg, i.p, 30 min), 110 ± 2.3; in the test on C57BL/6J mice (10 nM/kg, i.p, 60 min) it was 112 ± 3.0; in the test with C57BL/6J mice (10 nM/kg, i.p, 120 min), 112 ± 1.9; in the test on C57BL/6J mice (2 μM/kg, oral, 0 min), 181 ± 2.5; with C57BL/6J mice (2 μM/kg, oral, 30 min), 117 ± 3.3. The blood glucose level came to 112 ± 4.0 with C57BL/6J mice (2 μM/kg, oral, 60 min) and 108 ± 2.9 in the test with C57BL/6J mice (2 μM/kg, oral, 120 min).
